# Measurements from US20260207615A1, “FLUOROPYRIDOPYRIMIDINE AND FLUOROQUINAZOLINE DERIVATIES AND METHODS OF USE THEREOF” (Frontier Medicines Corporation, priority 2022, published 2026).
# Biological target: T1, KRAS G12C and cRAF interaction (Homo sapiens, UniProt P01116, C118S/C51S/C80L/G12C)
# T1 construct: truncated version comprising amino acids 1-169
# Assay: Inhibition of KRAS G12C and cRAF binding (AlphaScreen)
# Assay type: biochemical
# Conditions: KRAS G12C (Cys-light, aa 1-169) preloaded with GMPPNP, cRaf RBD (aa 50-131), 2 hours incubation
# Experimental: The AlphaScreen technology was used to determine IC50s for compound inhibition of KRAS G12C (present as the Cys-light (C51S, C80L and C118S), truncated version comprising amino acids 1-169) and cRAF interaction. Compounds were diluted in 100% DMSO and each compound concentration was spotted at 200 nl/well onto low volume, white 384 well plates. The KRAS G12C contained a biotin-AviTag and the cRaf, as Ras-binding domain (amino acids 50-131, RBD), was GST-tagged. KRAS G12C was preloaded with the GTP analogue Guanosine 5′-[β,γ-imido]triphosphate (GMPPNP). The KRAS G12C was diluted in 25 mM Hepes, pH 7.4, 150 mM NaCl, 5 mM MgCl2, 0.01% TritonX-100 and 10 μM GMPPNP and added at 10 μl/well to compound-spotted plates resulting in a DMSO concentration of 2%. Plates were incubated for 2 hours. A mixture of RBD and the AlphaScreen streptavidin donor and glutathione acceptor beads diluted in 25 mM Hepes, pH 7.4, 150 mM NaCl, 5 mM MgCl2, 0.01% TritonX-100 and 2% DMSO was then added at 10 μl/well and incubated for 60-90 minutes before the samples were read for emission at 570 nm after excitation of the donor beads at 680 nm. All incubations were performed at room temperature. The final top compound concentration was 50 μM with 1:3 titrations for 10-point dose response curves. Final assay conditions were 0.5 nM KRAS G12C, 0.75 nM RBD and 5 μg/ml each of AlphaScreen donor and acceptor beads. IC50S were determined using nonlinear regression fit of [inhibitor] vs. response (4 parameters).
# A counter assay was also set up to rule out inhibitors of the AlphaScreen technology itself. Compound plates were incubated for 2 hours as above with buffer only.
# The AlphaScreen beads were added as above except biotin-AviTag-GST was substituted for the RBD. Samples were read and analyzed as above.
# T1 sequence (P01116 1-169 isoform P01116-2 G12C/C51S/C80L/C118S): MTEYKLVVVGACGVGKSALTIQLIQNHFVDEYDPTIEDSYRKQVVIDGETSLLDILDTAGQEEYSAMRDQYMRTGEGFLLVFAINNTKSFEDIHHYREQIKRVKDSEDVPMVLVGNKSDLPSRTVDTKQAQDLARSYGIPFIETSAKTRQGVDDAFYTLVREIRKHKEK
row,SMILES,IC50 [nM]
1,"CN(C/C=C/C(=O)N1CCN(c2nc(OC[C@@]34CCCN3C[C@H](F)C4)nc3c(F)c(-c4cccc5cccc(Cl)c45)ncc23)CC12COC2)CC1COC1 [Example 3, (E)-1-(8-(7-(8-chloronaphthalen-1-yl)-8-fluoro-2-(((2R,7aS)-2-fluorotetrahydro-1H-pyrrolizin-7a(5H)-yl)methoxy)pyrido[4,3-d]pyrimidin-4-yl)-2-oxa-5,8-diazaspiro[3.5]nonan-5-yl)-4-(methyl(oxetan-3-ylmethyl)amino)but-2-en-1-one]",10 to 100
2,"O=C(/C=C/CN1[C@@H]2CC[C@H]1COC2)N1CCN(c2nc(OC[C@@]34CCCN3C[C@H](F)C4)nc3c(F)c(-c4cccc5cccc(Cl)c45)ncc23)CC12COC2 [Example 4, (E)-4-((1R,5S)-3-oxa-8-azabicyclo[3.2.1]octan-8-yl)-1-(8-(7-(8-chloronaphthalen-1-yl)-8-fluoro-2-(((2R,7aS)-2-fluorotetrahydro-1H-pyrrolizin-7a(5H)-yl)methoxy)pyrido[4,3-d]pyrimidin-4-yl)-2-oxa-5,8-diazaspiro[3.5]nonan-5-yl) but-2-en-1-one]",< 10
3,"Cc1nccc(/C=C/C(=O)N2CCN(c3nc(OC[C@@]45CCCN4C[C@H](F)C5)nc4c(F)c(-c5cccc6ccc(F)c(F)c56)ncc34)CC23COC3)n1 [Example 5, (E)-1-(8-(7-(7,8-difluoronaphthalen-1-yl)-8-fluoro-2-(((2R,7aS)-2-fluorotetrahydro-1H-pyrrolizin-7a(5H)-yl)methoxy)pyrido[4,3-d]pyrimidin-4-yl)-2-oxa-5,8-diazaspiro[3.5]nonan-5-yl)-3-(2-methylpyrimidin-4-yl) prop-2-en-1-one]",10 to 100
4,"Cc1nccc(/C=C/C(=O)N2CCN(c3nc(OC[C@@]45CCCN4C[C@H](F)C5)nc4c(F)c(-c5cccc6ccc(F)c(Cl)c56)ncc34)CC23COC3)n1 [Example 6, (E)-1-(8-(7-(8-chloro-7-fluoronaphthalen-1-yl)-8-fluoro-2-(((2R,7aS)-2-fluorotetrahydro-1H-pyrrolizin-7a(5H)-yl)methoxy)pyrido[4,3-d]pyrimidin-4-yl)-2-oxa-5,8-diazaspiro[3.5]nonan-5-yl)-3-(2-methylpyrimidin-4-yl) prop-2-en-1-one]",10 to 100

# Other lines, results leading:
row,IC50 [nM],SMILES
1,100 to 500,"C=CC(=O)N1CCN(c2nc(OC[C@@H]3CCCN3C)nc3c(F)c(-c4cccc5cccc(Cl)c45)ncc23)CC12COC2 [Example 1, (S)-1-(8-(7-(8-chloronaphthalen-1-yl)-8-fluoro-2-((1-methylpyrrolidin-2-yl)methoxy)pyrido[4,3-d]pyrimidin-4-yl)-2-oxa-5,8-diazaspiro[3.5]nonan-5-yl) prop-2-en-1-one]"
2,100 to 500,"Cc1nccc(/C=C/C(=O)N2CCN(c3nc(OC[C@@]45CCCN4C[C@H](F)C5)nc4c(F)c(-c5cccc6cccc(Cl)c56)ncc34)CC23COC3)n1 [Example 2, (E)-1-(8-(7-(8-chloronaphthalen-1-yl)-8-fluoro-2-(((2R,7aS)-2-fluorotetrahydro-1H-pyrrolizin-7a(5H)-yl)methoxy)pyrido[4,3-d]pyrimidin-4-yl)-2-oxa-5,8-diazaspiro[3.5]nonan-5-yl)-3-(2-methylpyrimidin-4-yl) prop-2-en-1-one]"
3,100 to 500,"Cc1nccc(/C=C/C(=O)N2CCN(c3nc(OCC45CCCN4CCC5)nc4c(F)c(-c5cccc6cccc(Cl)c56)ncc34)CC23COC3)n1 [Example 7, (E)-1-(8-(7-(8-chloronaphthalen-1-yl)-8-fluoro-2-((tetrahydro-1H-pyrrolizin-7a(5H)-yl)methoxy)pyrido[4,3-d]pyrimidin-4-yl)-2-oxa-5,8-diazaspiro[3.5]nonan-5-yl)-3-(2-methylpyrimidin-4-yl) prop-2-en-1-one]"
